For data set [1] the following is noted: solution prepared 18 hours before spray drying; cited from earlier work.
Data set [2] deals with NSCLC cell line Calu-3. Briefly: Orthotopic nude rat model for lung cancer, in vivo efficacy study. To be noted: each with cisplatin IP 3 mg/kg, 1.5 mg/kg deposited INH vs 15 mg/kg IP, 8 weeks. Here is the method: NSCLC cell line Calu-3 was instilled into the lungs of X-irradiated rats by an intratracheal route, targeting 1.5×10^7 cells per installation. For the first four weeks of the study, no treatment was administered, allowing growth of the tumor cells. Inhaled bevacizumab SDD was evaluated as a primary treatment as well as a maintenance therapy.
Cisplatin was administered by IP at 3 mg/kg. Powder was aerosolized using a rotating brush generator and delivered to the rats passively through nasal inhalation. […] Groups 1-4 were evaluated for primary efficacy after 8 weeks with lung weight as the end point. Groups 5-7 were evaluated for maintenance efficacy after 12 weeks with lung weight and survival as the end point.

Take `N.N.[Cl][Pt][Cl]` [cisplatin]: in data set [1], the “stability in aqueous solution” value is “converts to transplatin”.
For the compound Bevacizumab [bevacizumab control], the “tumor burden, inhaled vs IP bevacizumab” value is “indistinguishable” in data set [2] (listed as IP bevacizumab) and “equal” in data set [2] (listed as bevacizumab delivered via IP injection).

(Values after US20240197628A1, “INHALABLE DRY POWDER FORMULATIONS COMPRISING ANGIOGENESIS INHIBITORS” (Lonza Bend Inc., priority 2020, published 2024).)
